US10786484B2, “Mono- or di-substituted indole derivatives as dengue viral replication inhibitors” (Janssen Pharmaceuticals, Inc., priority 2015, dated 2020)
Where two headings read alike, the source gives them in different places.

Tests used:
[1] = system: DENV-2 16681 strain labeled with eGFP; experiment: DENV-2 antiviral assay (eGFP fluorescence read-out in Vero cells); assay type: cell-based, Dengue virus; conditions: DENV-2 16681 eGFP, MOI 0.5, 3 days
Description: The antiviral activity of all the compounds of the invention was tested against the DENV-2 16681 strain which was labeled with enhanced green fluorescent protein (eGPF). The culture medium consists of minimal essential medium supplemented with 2% of heat-inactivated fetal calf serum, 0.04% gentamycin (50 mg/mL) and 2 mM of L-glutamine. Vero cells, obtained from ECACC, were suspended in culture medium and 25 μL was added to 384-well plates (2500 cells/well), which already contain the antiviral compounds. Typically, these plates contain a 5-fold serial dilution of 9 dilution steps of the test compound at 200 times the final concentration in 100% DMSO (200 nL). […] Finally, each plate contains wells which are assigned as virus controls (containing cells and virus in the absence of compound), cell controls (containing cells in the absence of virus and compound) and medium controls (containing medium in the absence of cells, virus and compounds). To the wells assigned as medium control, 25 μL of culture medium was added instead of Vero cells. Once the cells were added to the plates, the plates were incubated for 30 minutes at room temperature to allow the cells to distribute evenly within the wells. Next, the plates were incubated in a fully humidified incubator (37° C., 5% CO2) until the next day. Then, DENV-2 strain 16681, labeled with eGFP, was added at a multiplicity of infection (MOI) of 0.5. Therefore, 15 μL of virus suspension was added to all the wells containing test compound and to the wells assigned as virus control. In parallel, 15 μL of culture medium was added to the medium and cell controls. Next, the plates were incubated for 3 days in a fully humidified incubator (37° C., 5% CO2). At the day of the read out, the eGFP fluorescence was measured using an automated fluorescence microscope at 488 nm (blue laser). Using an in-house LIMS system, inhibition dose response curves for each compound were calculated and the half maximal effective concentration (EC50) was determined. Therefore, the percent inhibition (I) for every test concentration is calculated using the following formula: I=100*([…])/(SVC−SCC); ST, SCC and SVC are the amount of eGFP signal in the test compound, cell control and virus control wells, respectively. The EC50 represents the concentration of a compound at which the virus replication is inhibited with 50%, as measured by a 50% reduction of the eGFP fluorescent intensity compared to the virus control. The EC50 is calculated using linear interpolation (Table 1).

DENV-1 strain TC974#666 = experiment: Tetravalent RT-qPCR assay Protocol A, serotype 1; assay type: cell-based; conditions: Dengue virus, DENV1, 72 h; RT-qPCR serotype 1 TC974#666, Vero cells, day 3
Description: (§1) The antiviral activity of the compounds of the invention was tested against DENV-1 strain TC974#666 (NCPV), DENV-2 strain 16681, DENV-3 strain H87 (NCPV) and DENV-4 strains H241 (NCPV) and EDEN (SG/06K2270DK1/2005; GenBank accession number QG398256) in a RT-qPCR assay. Therefore, Vero cells were infected with either DENV-1, or -2, or -3, or -4 in the presence or absence of test compounds. At day 3 post-infection, the cells were lysed and cell lysates were used to prepare cDNA of both a viral target (the 3′UTR of DENV; Table 2) and a cellular reference gene (β-actin, Table 2). Subsequently, a duplex real time PCR was performed on a Lightcycler480 instrument. The generated Cp value is inversely proportional to the amount of RNA expression of these targets. Inhibition of DENV replication by a test compound results in a shift of Cp's for the 3′UTR gene. On the other hand, if a test compound is toxic to the cells, a similar effect on β-actin expression will be observed. The comparative ΔΔCp method is used to calculate EC50, which is based on the relative gene expression of the target gene (3′UTR) normalized with the cellular housekeeping gene (β-actin). In addition, CC50 values are determined based on the Cp values acquired for the housekeeping gene β-actin.
(§2) The culture medium consisted of minimal essential medium supplemented with 2% of heat-inactivated fetal calf serum, 0.04% gentamycin (50 mg/mL) and 2 mM of L-glutamine. Vero cells, obtained from ECACC, were suspended in culture medium and 75 μL/well was added in 96-well plates (10000 cells/well), which already contain the antiviral compounds. […] In addition, each plate contains wells which are assigned as virus controls (containing cells and virus in the absence of compound) and cell controls (containing cells in the absence of virus and compound). Once the cells were added in the plates, the plates were incubated in a fully humidified incubator (37° C., 5% CO2) until the next day. Dengue viruses serotype-1, 2, 3 and 4 were diluted in order to obtain a Cp of ˜22-24 in the assay. Therefore, 25 μL of virus suspension, was added to all the wells containing test compound and to the wells assigned as virus control. In parallel, 25 μL of culture medium was added to the cell controls. Next, the plates were incubated for 3 days in a fully humidified incubator (37° C., 5% CO2). After 3 days, the supernatant was removed from the wells and the cells were washed twice with ice-cold PBS (−100 μL). The cell pellets within the 96-well plates were stored at −80° C. for at least 1 day. Next, RNA was extracted using the Cells-to-CT™ lysis kit, according to the manufacturer's guideline (Life Technologies). The cell lysates can be stored at −80° C. or immediately used in the reverse transcription step.
(§3) In preparation of the reverse transcription step, mix A (table 3A) was prepared and 7.57 μL/well was dispensed in a 96-well plate. After addition of 5 μL of the cell lysates, a five minute denaturation step at 75° C. was performed (table 3B). Afterwards, 7.43 μL of mix B was added (table 3C) and the reverse transcription step was initiated (table 3D) to generate cDNA.
(§4) Finally, a RT-qPCR mix was prepared, mix C (table 4A), and 22.02 μL/well was dispensed in 96-well LightCycler qPCR plates to which 3 μL of cDNA was added and the qPCR was performed according to the conditions in table 4B on a LightCycler 480.
(§5) Using the LightCycler software and an in-house LIMS system, dose response curves for each compound were calculated and the half maximal effective concentration (EC50) and the half maximal cytotoxic concentration (CC50) were determined (Tables 5-8).

DENV-2 strain 16681 = experiment: Tetravalent RT-qPCR assay Protocol A, serotype 2; assay type: cell-based; conditions: Dengue virus, DENV2, 72 h; RT-qPCR serotype 2 16681, Vero cells, day 3
Description: as §1, §2, §3, §4, §5

DENV-3 strain H87 = experiment: Tetravalent RT-qPCR assay Protocol A, serotype 3; assay type: cell-based; conditions: Dengue virus, DENV3, 72 h; RT-qPCR serotype 3 H87, Vero cells, day 3
Description: as §1, §2, §3, §4, §5

DENV-4 strain H241 = experiment: Tetravalent RT-qPCR assay Protocol A, serotype 4 H241; assay type: cell-based; conditions: Dengue virus, DENV4, 72 h; RT-qPCR serotype 4 H241, Vero cells, day 3
Description: as §1, §2, §3, §4, §5

[2] = system: DENV-4 strain EDEN (SG/06K2270DK1/2005); experiment: Tetravalent RT-qPCR assay Protocol A, serotype 4 EDEN; assay type: cell-based; conditions: Dengue virus, DENV4, 72 h; RT-qPCR serotype 4 EDEN, Vero cells, day 3
Description: as §1, §2, §3, §4, §5

in vitro [3] = assay type: cell-based; conditions: African green monkey, CC50
Description: as §1, §2, §5

Vero cells [4] = conditions: African green monkey
Vero cells [5] = experiment: in vitro; assay type: cell-based; conditions: African green monkey, 3 days
Description: as §1, §2, §5

in vitro [6] = conditions: African green monkey

`COc1cc(NC(C(=O)c2c[nH]c3c(C)c(Cl)ccc23)c2ccc(F)cc2OCCO)cc(S(C)(=O)=O)c1` (single isomer, unassigned) [Compound 4B, 1-(6-chloro-7-methyl-1H-indol-3-yl)-2-(4-fluoro-2-(2-hydroxyethoxy)phenyl)-2-((3-methoxy-5-(methylsulfonyl)phenyl)amino)ethanone] gave an EC50 [1] of 0.2 nM, an EC50 (DENV-1 strain TC974#666) of 3.3 nM and an EC50 (DENV-2 strain 16681) of 0.21 nM. For the same compound, the EC50 (DENV-3 strain H87) was 55 nM, the EC50 (DENV-4 strain H241) was 140 nM and the EC50 [2] was 3.2 nM. It also gave a CC50 at 3 days (in vitro [3]) of over 2500 nM and a CC50 (Vero cells [4]) of 3800 nM.

`COc1cc(NC(C(=O)c2c[nH]c3cc(OC)c(C)cc23)c2ccc(F)cc2OCCO)cc(S(C)(=O)=O)c1` (single isomer, unassigned) [Compound 6A, 2-(4-fluoro-2-(2-hydroxyethoxy)phenyl)-2-((3-methoxy-5-(methylsulfonyl)phenyl)amino)-1-(6-methoxy-5-methyl-1H-indol-3-yl)ethanone] gave an EC50 [1] of 0.47 nM, an EC50 (DENV-1 strain TC974#666) of 3.5 nM and an EC50 (DENV-2 strain 16681) of 0.84 nM. The EC50 (DENV-3 strain H87) was 43 nM, the EC50 (DENV-4 strain H241) was 110 nM and the EC50 [2] was 3.4 nM. For the same compound, the CC50 (Vero cells [4]) was 5600 nM.

`COc1cc(NC(C(=O)c2c[nH]c3cc(Cl)ccc23)c2ccc(F)cc2OCCO)cc(S(C)(=O)=O)c1` (single isomer, unassigned) [Compound 2A, 1-(6-chloro-1H-indol-3-yl)-2-(4-fluoro-2-(2-hydroxyethoxy)phenyl)-2-((3-methoxy-5-(methylsulfonyl)phenyl)amino)-ethanone] gave an EC50 [1] of 0.32 nM, an EC50 (DENV-1 strain TC974#666) of 2.8 nM and an EC50 (DENV-2 strain 16681) of 0.4 nM. The EC50 (DENV-3 strain H87) was 48 nM, the EC50 (DENV-4 strain H241) was 170 nM and the EC50 [2] was 2.3 nM. It also gave a CC50 at 3 days (in vitro [3]) of 4800 nM and a CC50 (Vero cells [4]) of 4900 nM.

`COc1cc(NC(C(=O)c2c[nH]c3c(C)c(F)ccc23)c2ccc(F)cc2OCCO)cc(S(C)(=O)=O)c1` (single isomer, unassigned) [Compound 3A, 2-(4-fluoro-2-(2-hydroxyethoxy)phenyl)-1-(6-fluoro-7-methyl-1H-indol-3-yl)-2-((3-methoxy-5-(methylsulfonyl)phenyl)amino)ethanone] showed an EC50 [1] of 0.4 nM, an EC50 (DENV-1 strain TC974#666) of 3.3 nM and an EC50 (DENV-2 strain 16681) of 0.43 nM. For the same compound, the EC50 (DENV-3 strain H87) was 45 nM, the EC50 (DENV-4 strain H241) was 190 nM and the EC50 [2] was 5.1 nM. For the same compound, the CC50 at 3 days (in vitro [3]) was over 2500 nM and the CC50 (Vero cells [4]) was 4000 nM.

With `COc1cc(NC(C(=O)c2c[nH]c3cc(OC)c(OC(F)(F)F)cc23)c2ccc(F)cc2OCCO)cc(S(C)(=O)=O)c1` (single isomer, unassigned) [Compound 11B, 2-(4-fluoro-2-(2-hydroxyethoxy)phenyl)-2-((3-methoxy-5-(methyl-sulfonyl)phenyl)amino)-1-(6-methoxy-5-(trifluoromethoxy)-1H-indol-3-yl)ethanone] the EC50 [1] was 0.2 nM, the EC50 (DENV-1 strain TC974#666) was 0.6 nM and the EC50 (DENV-2 strain 16681) was 0.14 nM. It also gave an EC50 (DENV-3 strain H87) of 7.3 nM, an EC50 (DENV-4 strain H241) of 34 nM and a CC50 at 3 days (in vitro [3]) of over 2500 nM. The CC50 (Vero cells [5]) was over 2500 nM and the CC50 (Vero cells [4]) was 2400 nM.

Work on `COc1cc(NC(C(=O)c2c[nH]c3cc(F)c(F)cc23)c2ccc(F)cc2OCCO)cc(S(C)(=O)=O)c1` (single isomer, unassigned) [Compound 5A, 1-(5,6-difluoro-1H-indol-3-yl)-2-(4-fluoro-2-(2-hydroxyethoxy)phenyl)-2-((3-methoxy-5-(methylsulfonyl)phenyl)-amino)ethanone] yielded an EC50 [1] of 0.51 nM, an EC50 (DENV-1 strain TC974#666) of 4.1 nM and an EC50 (DENV-2 strain 16681) of 0.71 nM. The EC50 (DENV-3 strain H87) was 61 nM, the EC50 (DENV-4 strain H241) was 180 nM and the EC50 [2] was 3.7 nM. It also gave a CC50 at 3 days (in vitro [3]) of over 2500 nM and a CC50 (Vero cells [4]) of 3400 nM.

`COc1cc(NC(C(=O)c2c[nH]c3cc(F)ccc23)c2ccc(F)cc2OCCO)cc(S(C)(=O)=O)c1` (single isomer, unassigned) [Compound 1A, 1-(6-fluoro-1H-indol-3-yl)-2-(4-fluoro-2-(2-hydroxyethoxy)phenyl)-2-((3-methoxy-5-(methylsulfonyl)phenyl)amino)ethanone] showed an EC50 [1] of 0.78 nM, an EC50 (DENV-1 strain TC974#666) of 8.5 nM and an EC50 (DENV-2 strain 16681) of 1.1 nM. For the same compound, the EC50 (DENV-3 strain H87) was 68 nM, the EC50 (DENV-4 strain H241) was 290 nM and the EC50 [2] was 3.6 nM. For the same compound, the CC50 (in vitro [6]) was 8600 nM.

Compound `COc1cc(NC(C(=O)c2c[nH]c3c(C)cc(Cl)cc23)c2ccc(F)cc2OCCO)cc(S(C)(=O)=O)c1` (single isomer, unassigned) [Compound 9A, 1-(5-chloro-7-methyl-1H-indol-3-yl)-2-(4-fluoro-2-(2-hydroxyethoxy)phenyl)-2-((3-methoxy-5-(methylsulfonyl)phenyl)amino)ethanone] has an EC50 [1] of 0.39 nM, an EC50 (DENV-1 strain TC974#666) of 1.4 nM and an EC50 (DENV-2 strain 16681) of 0.61 nM. It also gave an EC50 (DENV-3 strain H87) of 16 nM, an EC50 (DENV-4 strain H241) of 110 nM and a CC50 at 3 days (in vitro [3]) of over 2500 nM. It also gave a CC50 (Vero cells [4]) of 3200 nM.
